# Laboratory results: a melting point compilation (Tetko et al.)
row,melting point,Structure (SMILES)
1,253 to 257 °C,N#Cc1cc2ccccc2cc1C#N
2,161 °C,Cc1cccc(N/N=C2/C(=O)N(c3ccccc3)N=C2C(F)(F)F)c1
3,47 °C,Nc1c(F)ccc(Cl)c1F
4,151 °C,O=C1NCc2ccccc21
5,2.5 °C,CCCCCCCC(=O)CC
6,80 to 82 °C,O=C(OCc1ccccc1)C(=O)OCc1ccccc1
7,173 to 177 °C,N#CC(=CN1CCOCC1)C(N)=O
8,173 to 175 °C,NNC(=O)c1ccc(Br)cc1Cl
9,103 to 105 °C,Clc1ccc2nc(N3CCCNCC3)sc2c1
10,49 °C,COC(=O)C=Cc1cccs1
11,160 to 165 °C,O=C1OC(=O)c2c1cccc2[N+](=O)[O-]
12,188 °C,CC1(C(=O)O)CCC(O)(CC(O)c2ccccc2)C1(C)C (configuration not stated)
13,138 °C,CCc1ccc(NC(N)=S)cc1
14,-34 °C,CCOC(=O)c1ccccc1
15,117 °C,Cc1ccc(C(=O)NN)cc1
16,55 to 56 °C,OCc1ccc(Oc2ccccc2)cc1
17,148 °C,O=C(Nc1nccs1)C(C(F)(F)F)C(F)(F)F
18,186 °C,CCNc1nc2c(cc1C(=O)OCC)c(=O)oc1ccccc12
19,96 °C,CC(=O)C(C=N)c1ccccc1 (configuration not stated)
20,48 °C,COC(=O)c1ccccc1CC#N
21,83 to 89 °C,COc1ccc2c(c1)CC2C(=O)O (configuration not stated)
22,72 °C,CC(C(=O)Nc1ccc(F)c(Cl)c1)(C(F)(F)F)C(F)(F)F

row,melting point,Structure (SMILES)
1,248 °C,O=C(Nc1ccccc1)c1cc2ccccc2cc1O
2,76 to 80 °C,O=C1CCC2OCC(c3ccccc3)N12 (configuration not stated)
3,-80 °C,CN(C)CCOCCN(C)C
4,275 °C,Nc1ccc(Nc2ccc(N)c3c2C(=O)c2ccccc2C3=O)c2c1C(=O)c1ccccc1C2=O
5,45 °C,c1ccc(-c2cccc3ccccc23)cc1
6,10 °C,CCCC(=O)c1ccccc1O
7,94 °C,O=C=Nc1cc([N+](=O)[O-])ccc1Cl
8,187 °C,Oc1ncccc1Br
9,93 to 95 °C,Nc1c(Br)cc(Cl)cc1Br
10,160 °C,Cn1c(Br)nc(C(=O)O)c1C(=O)O
11,118 °C,COc1cc2c(cc1OC)[C@@H](C(=O)c1ccc3c(c1OC)C=CC(C)(C)O3)CCO2
12,160 °C,O=C1/C(=N/Nc2cccc(C(F)(F)F)c2)C(C(F)(F)F)=NN1c1ccccc1
13,146 °C,CCOC(=O)C(Cl)(Cc1cc(CC(Cl)(C(=O)OCC)C(=O)OCC)c([N+](=O)[O-])cc1[N+](=O)[O-])C(=O)OCC
14,118 °C,CC12CCC3C(CCC4CC=CCC43C)C1CC=C2CCc1ccccc1 (configuration not stated)
15,233 °C,CC(=O)N(c1ccccc1)c1cc(N(C(C)=O)c2ccccc2)c([N+](=O)[O-])cc1[N+](=O)[O-]
16,106 to 109 °C,Nc1cccc(CN2CCCCC2)c1
17,272 to 275 °C,O=C1c2ccccc2C(=O)N1c1nc2ccccc2[nH]1
18,140 °C,NNC(=O)c1ccc(OCc2ccccc2)cc1
19,92 to 96 °C,CC(C)(C)C(=O)Oc1ccc([N+](=O)[O-])cc1
20,129 °C,Cc1cccc(N2C(=O)C3ON=C(C(=O)c4ccco4)C3C2=O)c1 (configuration not stated)
21,120 to 122 °C,c1ccc(P(c2ccccc2)P(c2ccccc2)c2ccccc2)cc1
22,141 °C,CCOC(=O)CC[C@H](NC(=O)c1ccc(N)cc1)C(=O)OCC

row,melting point,Structure (SMILES)
1,50.5 to 51.5 °C,CCOC(=O)c1cccc(Oc2cncc(C)n2)c1
2,186 to 188 °C,c1ccc(-c2nnc(-c3ccccn3)c(-c3ccccn3)n2)nc1
3,104 to 107 °C,FC(F)(F)c1cc(Cl)c2cc(Cl)ccc2n1
4,222 °C,CC1=CCC/C1=N\Nc1ccc([N+](=O)[O-])cc1[N+](=O)[O-]
5,60 to 61 °C,O=C(Cl)Cc1ccc2ccccc2c1
6,64.7 °C,COC(=O)[C@H](CC(=O)O)Cc1ccc2ccccc2c1
7,162 °C,CCc1occc(=O)c1O
8,182 °C,CC(C)(C)N(NC(=O)c1ccccc1)C(=O)c1ccccc1[N+](=O)[O-]
9,70 to 72 °C,Clc1ccc(OCc2ccccc2)cc1
10,140 to 143 °C,Cc1cc(C(=O)NCc2ccc(Cl)cc2)no1
11,107 °C,Nc1ccc(C(F)(F)F)cc1[N+](=O)[O-]
12,27 to 28 °C,COC(=O)/C(=C/c1ccccc1)Cc1ccccc1
13,51 °C,Cc1cc(Br)ncc1I
14,186 °C,CC(=O)c1nn(-c2ccccc2[N+](=O)[O-])c(=N)s1
15,141 to 143 °C,O=C(C(=O)c1ccc([N+](=O)[O-])cc1)c1ccccc1
16,133 to 136 °C,Nc1oncc1-c1ccccn1
17,103 °C,N#Cc1ccc(S(=O)(=O)Cl)c(Cl)c1
18,67 to 70 °C,c1ccc(C2OC2c2ccccc2)cc1 (configuration not stated)
19,79 °C,CSCS(=O)(=O)c1ccc(C)cc1
20,-13 °C,O=C1CCCC1C1CCCC1 (configuration not stated)
21,77.5 °C,CC(C=CC=C(C)C=CC1=C(C)C=CCC1(C)C)=CC=O
22,176 to 178 °C,CC(=O)OC1C2=C(C(=O)C(OC(C)=O)C3(CC3C)C2=O)C2(C)CCC(C)=C(C)C2C1O (configuration not stated)

row,melting point,Structure (SMILES)
1,88 to 90 °C,C=CCSc1nc(C)n[nH]1
2,232 °C,O=[N+]([O-])c1ccc(Br)c2cccc(C=Nc3ccccc3)c12
3,312 °C,CC1(C)CC(=O)C2=C(C1)Nc1c(ccc3ccccc13)C2c1ccc(O)cc1 (configuration not stated)
4,198 °C,COC(=O)C1=C(C)NC(C)=C(C(=O)OC)C1c1ccccc1
5,138 to 141 °C,O=C1CC[C@H]2CCc3ccccc3[C@@H]2O1
6,200 °C,Cc1nc(-c2ccc(C(=O)O)s2)cs1
7,124 to 130 °C,Oc1ccc2cc[nH]c2c1
8,150 to 153 °C,C=CCn1c(S)nnc1CNC(=O)OC(C)(C)C
9,174 °C,O=C(O)c1ccc(OCC(F)(F)F)nc1
10,24.5 °C,CCCCCCCCCCCCCCC=O
11,164 to 168 °C,O=C1Nc2ccccc2CCC1Br (configuration not stated)
12,250 °C,Nc1c(C(=O)O)sc2nccnc12
13,159 to 160 °C,O=C1OC(c2ccccc2)=NC1=Cc1ccc(-c2ccccc2Br)o1
14,-13 °C,CC(CO)c1ccccc1 (configuration not stated)
15,155 to 157 °C,Cc1ccccc1OCC(=O)O
16,159 °C,Cc1ccc2nc3c(ccc4ccccc43)c(C)c2c1
17,84 to 85.5 °C,CC1c2ccccc2C(=O)C1c1ccccc1 (configuration not stated)
18,124 to 125 °C,CC(=O)N(c1ccc(C)cc1)c1nc(CCl)cs1
19,95 °C,CNC(=O)COC1CCN(C(=O)OC(C)(C)C)CC1

row,Structure (SMILES),melting point
1,COc1cccc(CC(C)=O)c1,258 to 260 °C
2,CN(C)CCN(C)C,-55 °C
3,Cc1cc(C(C)(C)c2ccc(O)c(C)c2)ccc1O,139 °C
4,CN1C2CCC1C(C(=O)O)C(O)C2 (configuration not stated),205 °C
5,N#CC(=Cc1cccc(O)c1)C(=O)O,230 to 233 °C
6,S=C=Nc1ccccc1I,39 °C
7,Nc1cccc2cc3ccccc3cc12,116 °C
